“Also recorded” adds a separate entry of the source.
Tests used:
[1] = tested on: endogenous neural stem cell populations in the brain; experiment: Endogenous stem cell proliferation in aged rat brain after MS-818 i.p., BrdU immunostaining; assay type: in vivo; conditions: 3 mg/kg/day i.p. for 5 days
Method: To investigate the effect of MS-818, a pyrimidine derivative, on stem cell population in vivo, MS-818 (3 mg/kg/day, i.p.) was injected for 5 days into aged (27-month old) male Fisher 344 rats. The same volume of saline was injected into control animals. Bromodeoxyuridine (BrdU) (100 mg/kg/day i.p.) was then injected for 3 days. Twenty-four hours after the last injection, the brains were removed and fixed for immunohistochemical detection of the proliferating cells by immunostaining for BrdU.

[2] = tested on: endogenous retinal stem cell populations; experiment: Endogenous retinal stem cell proliferation after intraocular MS-818, BrdU immunostaining; assay type: in vivo; conditions: rat; intraocular (vitreous cavity) 10 μg/20 μl, one time injection; after three days

SMILES: CC1Nc2nc(N3CCCCC3)ncc2C1=O.O=C(O)/C=C\C(=O)O (stereo not shown) [MS-818, 2-piperadino-6-methyl-5-oxo-5,6-dihydro(7H) pyrrolo[2,3-d]pyrimidine maleate]
- proliferation and migration of stem cells in the subventricular zone [1]: significant increase not only in the proliferation but also in the migration of stem cells
- number of BrdU positive cells in SVZ (immunohistochemistry) ([1]; vs control without MS-818): increased
- number of BrdU positive cells in cerebral cortex (immunohistochemistry) ([1]; vs control without MS-818): significantly increased
- number of BrdU-positive cells in retina / retinal ciliary marginal zone [2]: dramatic increase; also recorded: clearly increased
